Tests used:
Assay type in all cases: biochemical
CDK4/cyclin D3 = CDK4/cyclin D3 (Homo sapiens, UniProt P11802); experiment: Inhibition of CDK4/Cyclin D Retinoblastoma Kinase Activity; conditions: apparent Ki
How it was run: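 Human CDK4/cyclin D3 (full-length or cyclin D3 1–264), insect-cell expressed, at 5 or 50 nM with His-tagged Rb 386–928 substrate, 25 μM ATP plus [32P/33P]ATP, pH 7.4, 2% DMSO, 30 °C for 20 min; tight binders used 5 nM enzyme for 60 min. Filter-captured phospho-Rb quantified by phosphorimager. Apparent Ki from competitive or tight-binding inhibition fits.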

CDK2/cyclin A = biological target: T1, CDK2/cyclin A (Homo sapiens, UniProt P24941); experiment: Inhibition of CDK2/Cyclin A Retinoblastoma Kinase Activity; conditions: apparent Ki
T1 construct: made in house; host or cells: CDK2: insect cells (baculovirus); cyclin A: E. coli
How it was run: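 Baculovirus-expressed CDK2 complexed with proteolyzed cyclin A, at 150 nM or 5 nM, phosphorylating an Rb fragment with 25 µM [32/33P]ATP in HEPES pH 7.4, 2% DMSO. Reactions run 20 min at 30°C, EDTA-stopped, filter-captured; apparent Ki from competitive or tight-binding competitive fits.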

FGFR1 tyrosine kinase = biological target: T2, FGFR1 tyrosine kinase (Homo sapiens, UniProt P11362, C488A/C584S/L457V); experiment: Inhibition of phosphorylated FGF receptor tyrosine kinase activity; conditions: for inhibition at 1 µM: read-out: FGF % Inhib. at 1 μM
T2 construct: the cytosolic domain of FGFR1 tyrosine kinase (amino acids 456–766); made in house; host or cells: Sf9 insect cells (baculovirus)
T2 sequence (P11362 456-766 L457V/C488A/C584S): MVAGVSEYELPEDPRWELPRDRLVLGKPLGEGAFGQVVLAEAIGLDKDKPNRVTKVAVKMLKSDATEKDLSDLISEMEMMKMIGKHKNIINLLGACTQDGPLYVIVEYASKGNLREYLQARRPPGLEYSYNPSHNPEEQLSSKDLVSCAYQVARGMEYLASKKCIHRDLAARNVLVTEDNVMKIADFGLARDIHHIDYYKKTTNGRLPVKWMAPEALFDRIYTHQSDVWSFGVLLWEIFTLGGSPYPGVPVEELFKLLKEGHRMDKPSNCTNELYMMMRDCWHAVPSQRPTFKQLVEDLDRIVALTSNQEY
Protocol: Inhibition of Phosphorylated FGF Receptor and LCK Tyrosine Kinase Activity
Cloning, expression and purification of the cytosolic domain of FGFR1 tyrosine kinase (amino acids 456–766) containing three amino acid substitutions (L457V, C488A, and C584S) were conducted as previously described (Mohammadi, M., Schlessinger, J., & Hubbard, S. R. (1996) Cell 86, 577–587). This domain was expressed in Sf9 insect cells using a baculovirus expression vector, and protein was purified using conventional techniques. The LCK tyrosine kinase was expressed in insect cells as an N-terminal deletion starting from amino acid 223 to the end of the protein at amino acid 509. The N-terminus of the protein also had two amino acid substitutions, P223M and C 224D. Kinases were purified using conventional chromatographic methods.
Tyrosine kinase activity was measured using a coupled, continuous spectrophotometric assay, in which production of phosphorylated poly(Glu, Tyr; 4:1) substrate and ADP is coupled to the pyruvate kinase-catalyzed transfer of a phosphate from phosphoenolpyruvate to ADP, with generation of pyruvate and regeneration of ATP. Pyruvate production is in turn coupled to the lactate dehydrogenase-catalyzed reduction of pyruvate to form lactate, with concomitant conversion of NADH to NAD+. Loss of NADH is monitored by measuring absorbance at 340 nm (see e.g., Technikova-Dobrova et al., “Spectrophotometric determination of functional characteristics of protein kinases with coupled enzymatic assay,” FEBS Letters, vol. 292 (1991), pp. 69–72). Enzyme activity was measured in the presence of 200 mM HEPES (pH 7.5), 2 mM phosphoenolpyruvate, 0.3 mM NADH, 20 mM MgCl2, 100 μM ATP, 5 mM DTT, 5.1 or 25 mM poly (Glu,Tyr) 4:1 for P-FGF or P-LCK assays, respectively, and 15 units/mL each of pyruvate kinase and lactate dehydrogenase. Phosphorylated FGF receptor kinase was present at 100 nM and phosphorylated LCK kinase was present at 50 nM. Assays were performed under initial rate conditions at 37° C., and rates were corrected for any background rate measured in the absence of enzyme. Percent inhibition was calculated relative to control enzyme assayed in the presence of 2% (v/v) DMSO.

Sequence of CDK4/cyclin D3 (P11802 2-303 limits assumed): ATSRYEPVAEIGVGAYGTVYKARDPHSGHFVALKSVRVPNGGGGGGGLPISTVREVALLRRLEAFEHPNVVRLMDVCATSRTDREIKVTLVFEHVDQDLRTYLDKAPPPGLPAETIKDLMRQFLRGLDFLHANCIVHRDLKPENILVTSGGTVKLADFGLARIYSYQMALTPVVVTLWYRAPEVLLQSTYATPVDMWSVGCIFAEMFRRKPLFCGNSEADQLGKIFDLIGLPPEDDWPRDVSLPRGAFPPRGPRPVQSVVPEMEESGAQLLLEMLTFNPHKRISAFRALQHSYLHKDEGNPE
Sequence of CDK4/cyclin D3 (P30281 1-264 limits assumed, further chain): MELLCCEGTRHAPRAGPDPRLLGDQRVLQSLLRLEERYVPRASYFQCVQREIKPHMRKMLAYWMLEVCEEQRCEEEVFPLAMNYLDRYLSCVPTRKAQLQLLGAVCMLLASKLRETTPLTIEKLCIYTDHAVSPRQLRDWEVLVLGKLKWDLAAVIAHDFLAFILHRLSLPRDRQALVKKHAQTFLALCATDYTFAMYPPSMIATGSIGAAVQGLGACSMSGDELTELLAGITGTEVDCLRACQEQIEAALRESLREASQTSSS

SMILES	Ki (CDK4/cyclin D3) [nM]	Ki (CDK2/cyclin A) [nM]	inhibition at 1 µM (FGFR1 tyrosine kinase) [%]	Ki (FGFR1 tyrosine kinase) [nM]
Cc1c(O)cccc1-c1ccc2[nH]nc(-c3nc4ccccc4[nH]3)c2c1 [10′, 3-[3-(1H-Benzoimidazol-2-yl)-1H-indazol-5-yl]-2-methyl-phenol]	74	33	61	–
CCNCc1cccc2[nH]c(-c3n[nH]c4ccc(-c5cncc6ccccc56)cc34)nc12 [Example 37, Ethyl-[2-(5-isoquinolin-4-yl-1H-indazol-3-yl)-1H-benzoimidazol-4-ylmethyl]-amine]	0.76	0.22	34.4	–
CC(C)NCc1cccc2[nH]c(-c3n[nH]c4ccc(-c5cncc6ccccc56)cc34)nc12 [Example 38, Isopropyl-[2-(5-isoquinolin-4-yl-1H-indazol-3-yl)-1H-benzoimidazol-4-ylmethyl]-amine]	0.798	1	42.4	–
c1ccc2[nH]c(-c3n[nH]c4ccc(-c5cccc6[nH]ccc56)cc34)nc2c1 [Example 48, 3-(1H-Benzoimidazol-2-yl)-5-(1H-indol-4-yl)-1H-indazole]	21	55	68.5	–
Clc1ccncc1-c1ccc2[nH]nc(-c3nc4ccccc4[nH]3)c2c1 [Example 52, 3-(1H-Benzoimidazol-2-yl)-5-(4-chloro-pyridin-3-yl)-1H-indazole]	3.5	2.6	55	–
c1ccc2[nH]c(-c3n[nH]c4ccc(-c5cncc6c5CCCN6)cc34)nc2c1 [Example 54]	26	0.27	81.5	–
O=C(Nc1cccc2c(-c3ccc4[nH]nc(-c5nc6ccccc6[nH]5)c4c3)cncc12)c1cccnc1 [Example 55, N-{4-[3-(1H-Benzoimidazol-2-yl)-1H-indazol-5-yl]-isoquinolin-8-yl}-nicotinamide]	41	1.1	83.6	–
Cc1c(/C=C/CO)cncc1-c1ccc2[nH]nc(-c3nc4ccccc4[nH]3)c2c1 [Example 59, (E)-3-{5-[3-(1H-Benzoimidazol-2-yl)-1H-indazol-5-yl]-4-methyl-pyridin-3-yl}-prop-2-en-1-ol]	1.6	0.58	47.6	–
Cc1c(CCCO)cncc1-c1ccc2[nH]nc(-c3nc4ccccc4[nH]3)c2c1 [Example 60, (E)-3-{5-[3-(1H-Benzoimidazol-2-yl)-1H-indazol-5-yl]-4-methyl-pyridin-3-yl}-propan-1-ol]	1.6	0.6	40.8	–
CCc1c(-c2ccncc2)cncc1-c1ccc2[nH]nc(-c3nc4ccccc4[nH]3)c2c1 [Example 61, 5-[3-(1H-Benzoimidazol-2yl)-1H-indazol-5-yl]-4ethyl-[3,4′]bipyridinyl]	17	1.2	60.7	480
Cc1c(-c2cccc(CO)c2)cncc1-c1ccc2[nH]nc(-c3nc4ccccc4[nH]3)c2c1 [Example 69, (3-{5-[3-(1H-Benzoimidazol-2-yl)-1H-indazol-5-yl]-4-methyl-pyridin-3-yl}-phenyl)-methanol]	15	4.1	25.6	–
Cc1c(-c2ccncc2)cncc1-c1ccc2[nH]nc(-c3nc4ccc(NS(C)(=O)=O)cc4[nH]3)c2c1 [Example 71, N-{2-[5-(4-methyl-[3,4′]bipyridinyl-5-yl)-1H-indazol-3-yl)-3H-benzoimidazol-5-yl]-methanesulfonamide]	0.85	1	28.8	–
Cc1c(CO)cncc1-c1ccc2[nH]nc(-c3nc4ccccc4[nH]3)c2c1 [Example 72, {5-[3-(1H-Benzoimidazol-2-yl)-1H-indazol-5-yl]-4-methyl-pyridin-3-yl}-methanol]	12	7.6	48.6	–
Cc1c(CN(C)C)cncc1-c1ccc2[nH]nc(-c3nc4ccccc4[nH]3)c2c1 [Example 73, {5-[3-(1H-Benzoimidazol-2-yl)-1H-indazol-5-yl]-4-methyl-pyridin-3-ylmethyl}-dimethyl-amine]	6.9	2.7	42.9	–
CCNCc1cncc(-c2ccc3[nH]nc(-c4nc5ccccc5[nH]4)c3c2)c1C [Example 74, {5-[3-(1H-Benzoimidazol-2-yl)-1H-indazol-5-yl]-4-methyl-pyridin-3-ylmethyl}-ethyl-amine]	0.52	1.6	82.6	–

Now from value to compound:

Ki (CDK4/cyclin D3) [nM]	Ki (CDK2/cyclin A) [nM]	inhibition at 1 µM (FGFR1 tyrosine kinase) [%]	Ki (FGFR1 tyrosine kinase) [nM]	SMILES
18	62	87	–	Cc1c(O)cccc1-c1ccc2[nH]nc(/C=C/c3ccccc3)c2c1 [15′, 2-Methyl-3-[3-((E)-styryl)-1H-indazol-5-yl]-phenol]
200	160	53	–	Fc1ccccc1-c1ccc2[nH]nc(-c3nc4ccccc4[nH]3)c2c1 [Example 6, 3-(1H-Benzoimidazol-2-yl)-5-(2-fluorophenyl)-1H-Indazole]
35	15	–	1000	C(=C\c1n[nH]c2ccc(-c3cncc4ccccc34)cc12)/c1ccccc1 [Example 16]
7.7	0.47	–	2200	OCc1cccc2[nH]c(-c3n[nH]c4ccc(-c5cncc6ccccc56)cc34)nc12 [Example 29, [2-(5-Isoquinolin-4-yl-1H-indazol-3-yl)-1H-benzoimidazol-4-yl]-methanol]
0.37	0.21	55.5	–	CN(C)Cc1cccc2[nH]c(-c3n[nH]c4ccc(-c5cncc6ccccc56)cc34)nc12 [Example 31, [2-(5-Isoquinolin-4-yl-1H-indazol-3-yl)-1H-benzoimidazol-4-ylmethyl]-dimethyl-amine]
2.3	1	55.8	–	CCN(CC)Cc1cccc2[nH]c(-c3n[nH]c4ccc(-c5cncc6ccccc56)cc34)nc12 [Example 36, Diethyl-[2-(5-isoquinolin-4-yl-1H-indazol-3-yl)-1H-benzoimidazol-4-ylmethyl]-amine]
30	28	50.5	–	CCc1cncc(-c2ccc3[nH]nc(/C=C/c4ccccc4)c3c2)c1Cl [Example 46, 5-(4-Chloro-5-ethyl-pyridin-3-yl)-3-(E)-styryl-1H-indazole]
2.6	0.29	32	–	Cc1c(-c2ccncc2)cncc1-c1ccc2[nH]nc(-c3nc4ccccc4[nH]3)c2c1 [Example 53, 5-[3-(1H-Benzoimidazol-2-yl)-1H-indazol-5-yl]-4-methyl-[3,4′]bipyridinyl]
6.7	1	20.3	3000	Cc1c(-c2cccnc2)cncc1-c1ccc2[nH]nc(-c3nc4ccccc4[nH]3)c2c1 [Example 58]
1.8	0.23	63	–	CS(=O)(=O)Nc1ccc2nc(-c3n[nH]c4ccc(-c5cncc6ccccc56)cc34)[nH]c2c1 [Example 70, N-[2-(5-Isoquinolin-4-yl-1H-indazol-3-yl)-3H-benzoimidazol-5-yl]-methanesulfonamide]

Reference: patent US7232912B2, “Indazole compounds, pharmaceutical compositions, and methods for mediating or inhibiting cell proliferation” (Agouron Pharmaceuticals, Inc., priority 2000, dated 2007)
